Measured values: PubChem BioAssay (NCI)
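In this assay, cells in 96-well plates receive the compound at five concentrations for 48 hours. Endpoints are linearly interpolated between the surrounding concentrations. GI50 is the concentration that inhibits growth by half. TGI marks complete inhibition of growth.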

Experiments:
Assay in all cases: DTP human tumour cell line panel, 48 h
[1] = test system: NCI-H460 lung
[2] = test system: DU-145 prostate
[3] = test system: OVCAR-4 ovarian
[4] = test system: SK-MEL-2 melanoma
[5] = test system: BT-549 breast
[6] = test system: SK-OV-3 ovarian
[7] = test system: K-562 leukemia
[8] = test system: OVCAR-3 ovarian
[9] = test system: IGROV1 ovarian
[10] = test system: HL-60(TB) leukemia
[11] = test system: MCF7 breast
[12] = test system: ACHN renal
[13] = test system: NCI/ADR-RES ovarian
[14] = test system: MDA-MB-231 breast
[15] = test system: UACC-62 melanoma
[16] = test system: MDA-MB-435
[17] = test system: HCT-116 colon
[18] = test system: SK-MEL-5 melanoma
[19] = test system: UACC-257 melanoma
[20] = test system: OVCAR-5 ovarian
[21] = test system: SF-295 CNS
[22] = test system: KM12 colon
[23] = test system: NCI-H522 lung
[24] = test system: RXF 393 renal
[25] = test system: HOP-62 NSCLC
[26] = test system: SR leukemia
[27] = test system: SK-MEL-28 melanoma
[28] = test system: PC-3 prostate

`CC(C)C[C@H](NC(=O)Cn1ccc(NCc2ccccc2)cc1=O)B(O)O` gave a GI50 [1] of 6.19 µM, a TGI [1] of 37.6 µM and a GI50 [2] of 5.48 µM. The TGI [2] was over 100 µM, the GI50 [3] was 4.59 µM and the TGI [3] was over 100 µM. The GI50 [4] was 1.85 µM, the TGI [4] was 14.8 µM and the GI50 [5] was 0.431 µM. For the same compound, the TGI [5] was 2.59 µM, the GI50 [6] was 13.7 µM and the TGI [6] was over 100 µM. It also gave a GI50 [7] of 3.48 µM, a TGI [7] of over 100 µM and a GI50 [8] of 0.537 µM. It also gave a TGI [8] of 3.12 µM, a GI50 [9] of 8.05 µM and a TGI [9] of 54.7 µM. The GI50 [10] was 0.439 µM, the TGI [10] was 10.7 µM and the GI50 [11] was 0.413 µM. For the same compound, the TGI [11] was over 100 µM, the GI50 [12] was 0.427 µM and the TGI [12] was over 100 µM. For the same compound, the GI50 [13] was 17.8 µM, the TGI [13] was over 100 µM and the GI50 [14] was 3.18 µM. The TGI [14] was 19.8 µM, the GI50 [15] was 1.6 µM and the TGI [15] was 11.1 µM. For the same compound, the GI50 [16] was 0.335 µM, the TGI [16] was 1.29 µM and the GI50 [17] was 0.576 µM. It also gave a TGI [17] of 3.66 µM, a GI50 [18] of 0.678 µM and a TGI [18] of 2.89 µM. It also gave a GI50 [19] of 0.961 µM, a TGI [19] of 4.73 µM and a GI50 [20] of 5.29 µM. The TGI [20] was over 100 µM, the GI50 [21] was 2.62 µM and the TGI [21] was 15.3 µM. The GI50 [22] was 3.62 µM, the TGI [22] was 17.1 µM and the GI50 [23] was 0.691 µM. It also gave a TGI [23] of 3.08 µM, a GI50 [24] of 0.346 µM and a TGI [24] of 1.31 µM. For the same compound, the GI50 [25] was 4.86 µM, the TGI [25] was 29.5 µM and the GI50 [26] was 0.281 µM. It also gave a TGI [26] of 14.5 µM, a GI50 [27] of 0.6 µM and a TGI [27] of 47 µM. It also gave a GI50 [28] of 5.86 µM and a TGI [28] of 98.9 µM.
